Experimental data as given in patent EP4635500A1, “THERAPEUTIC AGENT FOR BACTERIAL INFECTION” (Sumitomo Pharma Co., Ltd., priority 2022, dated 2024).
Converted amounts (≈) assume the structure as drawn. Like-named read-outs stand apart in the source and are kept apart here.

Tests used:
A. baumannii = assay: MIC, broth microdilution, CDC/FDA Antibiotic Resistance Isolate Bank (Example 7, Tables 9, 13, 14); format: cell-based, Acinetobacter baumannii; details: for MIC: Acinetobacter baumannii, read-out: MIC
P. aeruginosa = assay: MIC, broth microdilution, CDC/FDA Antibiotic Resistance Isolate Bank (Example 7, Tables 10, 15); format: cell-based; details: for MIC: Pseudomonas aeruginosa, read-out: MIC
[1] = MIC distribution, metallo-β-lactamase-producing A. baumannii, inhibitor µg/mL in parentheses

C[C@H]1[C@H](NC(=O)/C(=N\OC(C)(C)C(=O)O)c2csc(N)n2)C(=O)N1S(=O)(=O)O [Aztreonam, aztreonam]
MIC (A. baumannii; A. baumannii KUB No. 5585, AR Bank #88, OXA-64, NDM-1): 32 µg/mL (≈ 73.5 µM) | MIC (A. baumannii; A. baumannii KUB No. 5714, AR Bank #281, OXA-82): 32 µg/mL (≈ 73.5 µM) | MIC (A. baumannii; KUB No. 5719, AR Bank #286): 32 µg/mL (≈ 73.5 µM) | MIC (A. baumannii; KUB No. 5720, AR Bank #287): 32 µg/mL (≈ 73.5 µM) | MIC (A. baumannii; KUB No. 5727, AR Bank #294): 32 µg/mL (≈ 73.5 µM) | Number of isolates at MIC 32 µg/mL (A. baumannii; [1]): 1 | Number of isolates at MIC >64 µg/mL (A. baumannii; [1]): 3 | MIC against 26 metallo-carbapenemase-producing strains MIC50 (P. aeruginosa; 26 metallo-carbapenemase-producing P. aeruginosa strains, β-lactamase inhibitor µg/mL in parentheses): 16 µg(mL) | MIC against 96 strains of P. aeruginosa MIC50 (P. aeruginosa; 96 strains of P. aeruginosa, β-lactamase inhibitor µg/mL in parentheses): 16 µg(mL) | MIC (P. aeruginosa; P. aeruginosa KUB No. 579, AR Bank # 447): 4 µg/mL (≈ 9.19 µM) | MIC (P. aeruginosa; P. aeruginosa KUB No. 5551, AR Bank # 54): 32 µg/mL (≈ 73.5 µM) | MIC (P. aeruginosa; P. aeruginosa KUB No. 5561, AR Bank # 64): 16 µg/mL (≈ 36.7 µM) | MIC (P. aeruginosa; P. aeruginosa KUB No. 5592, AR Bank # 95): 16 µg/mL (≈ 36.7 µM) | MIC (P. aeruginosa; P. aeruginosa KUB No. 5597, AR Bank # 100): 32 µg/mL (≈ 73.5 µM) | MIC (P. aeruginosa; P. aeruginosa KUB No. 5600, AR Bank # 103): 16 µg/mL (≈ 36.7 µM) | MIC (P. aeruginosa; P. aeruginosa KUB No. 5602, AR Bank # 105): 32 µg/mL (≈ 73.5 µM) | MIC (P. aeruginosa; P. aeruginosa KUB No. 5605, AR Bank # 108): 8 µg/mL (≈ 18.4 µM) | MIC (P. aeruginosa; P. aeruginosa KUB No. 5607, AR Bank # 110): 4 µg/mL (≈ 9.19 µM) | MIC (P. aeruginosa; P. aeruginosa KUB No. 5608, AR Bank # 111): 2 µg/mL (≈ 4.59 µM) | MIC (P. aeruginosa; P. aeruginosa KUB No. 5663, AR Bank # 230): 4 µg/mL (≈ 9.19 µM) | MIC (P. aeruginosa; P. aeruginosa KUB No. 5665, AR Bank # 232): 4 µg/mL (≈ 9.19 µM) | MIC (P. aeruginosa; P. aeruginosa KUB No. 5666, AR Bank # 23): 16 µg/mL (≈ 36.7 µM) | MIC (P. aeruginosa; P. aeruginosa KUB No. 5667, AR Bank # 234): 2 µg/mL (≈ 4.59 µM) | MIC (P. aeruginosa; P. aeruginosa KUB No. 5669, AR Bank # 236): 2 µg/mL (≈ 4.59 µM) | MIC (P. aeruginosa; P. aeruginosa KUB No. 5670, AR Bank # 237): 4 µg/mL (≈ 9.19 µM) | MIC (P. aeruginosa; P. aeruginosa KUB No. 5671, AR Bank # 238): 4 µg/mL (≈ 9.19 µM) | MIC (P. aeruginosa; P. aeruginosa KUB No. 5672, AR Bank # 239): 32 µg/mL (≈ 73.5 µM) | MIC (P. aeruginosa; P. aeruginosa KUB No. 5673, AR Bank # 240): 32 µg/mL (≈ 73.5 µM) | MIC (P. aeruginosa; P. aeruginosa KUB No. 5674, AR Bank # 241): 32 µg/mL (≈ 73.5 µM) | MIC (P. aeruginosa; P. aeruginosa KUB No. 5675, AR Bank # 242): 4 µg/mL (≈ 9.19 µM) | MIC (P. aeruginosa; P. aeruginosa KUB No. 5676, AR Bank # 243): 2 µg/mL (≈ 4.59 µM) | MIC (P. aeruginosa; P. aeruginosa KUB No. 5677, AR Bank # 244): 32 µg/mL (≈ 73.5 µM) | MIC (P. aeruginosa; P. aeruginosa KUB No. 5678, AR Bank # 245): 16 µg/mL (≈ 36.7 µM) | MIC (P. aeruginosa; P. aeruginosa KUB No. 5680, AR Bank # 247): 4 µg/mL (≈ 9.19 µM) | MIC (P. aeruginosa; P. aeruginosa KUB No. 5681, AR Bank # 248): 4 µg/mL (≈ 9.19 µM) | MIC (P. aeruginosa; P. aeruginosa KUB No. 5682, AR Bank # 249): 32 µg/mL (≈ 73.5 µM) | MIC (P. aeruginosa; P. aeruginosa KUB No. 5684, AR Bank # 251): 32 µg/mL (≈ 73.5 µM) | MIC (P. aeruginosa; P. aeruginosa KUB No. 5685, AR Bank # 252): 32 µg/mL (≈ 73.5 µM) | MIC (P. aeruginosa; P. aeruginosa KUB No. 5686, AR Bank # 253): 16 µg/mL (≈ 36.7 µM) | MIC (P. aeruginosa; P. aeruginosa KUB No. 5687, AR Bank # 254): 4 µg/mL (≈ 9.19 µM) | MIC (P. aeruginosa; P. aeruginosa KUB No. 5688, AR Bank # 255): 8 µg/mL (≈ 18.4 µM) | MIC (P. aeruginosa; P. aeruginosa KUB No. 5689, AR Bank # 256): 4 µg/mL (≈ 9.19 µM) | MIC (P. aeruginosa; P. aeruginosa KUB No. 5690, AR Bank # 257): 8 µg/mL (≈ 18.4 µM) | MIC (P. aeruginosa; P. aeruginosa KUB No. 5691, AR Bank # 258): 4 µg/mL (≈ 9.19 µM) | MIC (P. aeruginosa; P. aeruginosa KUB No. 5692, AR Bank # 259): 4 µg/mL (≈ 9.19 µM) | MIC (P. aeruginosa; P. aeruginosa KUB No. 5693, AR Bank # 260): 8 µg/mL (≈ 18.4 µM) | MIC (P. aeruginosa; P. aeruginosa KUB No. 5694, AR Bank # 261): 4 µg/mL (≈ 9.19 µM) | MIC (P. aeruginosa; P. aeruginosa KUB No. 5695, AR Bank # 262): 16 µg/mL (≈ 36.7 µM) | MIC (P. aeruginosa; P. aeruginosa KUB No. 5696, AR Bank # 263): 2 µg/mL (≈ 4.59 µM) | MIC (P. aeruginosa; P. aeruginosa KUB No. 5697, AR Bank # 264): 2 µg/mL (≈ 4.59 µM) | MIC (P. aeruginosa; P. aeruginosa KUB No. 5698, AR Bank # 265): 8 µg/mL (≈ 18.4 µM) | MIC (P. aeruginosa; P. aeruginosa KUB No. 5699, AR Bank # 266): 4 µg/mL (≈ 9.19 µM) | MIC (P. aeruginosa; P. aeruginosa KUB No. 5700, AR Bank # 267): 4 µg/mL (≈ 9.19 µM) | MIC (P. aeruginosa; P. aeruginosa KUB No. 5701, AR Bank # 268): 32 µg/mL (≈ 73.5 µM) | MIC (P. aeruginosa; P. aeruginosa KUB No. 5702, AR Bank # 269): 16 µg/mL (≈ 36.7 µM) | MIC (P. aeruginosa; P. aeruginosa KUB No. 5703, AR Bank # 270): 2 µg/mL (≈ 4.59 µM) | MIC (P. aeruginosa; P. aeruginosa KUB No. 5704, AR Bank # 271): 16 µg/mL (≈ 36.7 µM) | MIC (P. aeruginosa; P. aeruginosa KUB No. 5705, AR Bank # 272): 4 µg/mL (≈ 9.19 µM) | MIC (P. aeruginosa; P. aeruginosa KUB No. 5749, AR Bank # 353): 8 µg/mL (≈ 18.4 µM) | MIC (P. aeruginosa; P. aeruginosa KUB No. 5750, AR Bank # 354): 16 µg/mL (≈ 36.7 µM) | MIC (P. aeruginosa; P. aeruginosa KUB No. 5754, AR Bank # 358): 32 µg/mL (≈ 73.5 µM) | MIC (P. aeruginosa; P. aeruginosa KUB No. 5755, AR Bank # 359): 32 µg/mL (≈ 73.5 µM) | MIC (P. aeruginosa; P. aeruginosa KUB No. 5756, AR Bank # 360): 16 µg/mL (≈ 36.7 µM) | MIC (P. aeruginosa; P. aeruginosa KUB No. 5785, AR Bank # 439): 4 µg/mL (≈ 9.19 µM) | MIC (P. aeruginosa; P. aeruginosa KUB No. 5786, AR Bank # 440): 32 µg/mL (≈ 73.5 µM) | MIC (P. aeruginosa; P. aeruginosa KUB No. 5789, AR Bank # 444): 8 µg/mL (≈ 18.4 µM) | MIC (P. aeruginosa; P. aeruginosa KUB No. 5800, AR Bank # 457): 32 µg/mL (≈ 73.5 µM) | MIC (P. aeruginosa; P. aeruginosa KUB No. 5805, AR Bank # 863): 16 µg/mL (≈ 36.7 µM) | MIC (P. aeruginosa; P. aeruginosa KUB No. 5813, AR Bank # 508): > 0.064 µg/mL | MIC (P. aeruginosa; P. aeruginosa KUB No. 5814, AR Bank # 509): 0.008 µg/mL (≈ 0.0184 µM) | MIC (P. aeruginosa; P. aeruginosa KUB No. 5815, AR Bank # 510): 0.0005 µg/mL (≈ 0.00115 µM) | MIC (P. aeruginosa; P. aeruginosa KUB No. 5816, AR Bank # 511): 0.004 µg/mL (≈ 0.00919 µM) | MIC (P. aeruginosa; P. aeruginosa KUB No. 5817, AR Bank # 512): 0.032 µg/mL (≈ 0.0735 µM) | MIC (P. aeruginosa; P. aeruginosa KUB No. 5818, AR Bank # 513): 0.032 µg/mL (≈ 0.0735 µM) | MIC (P. aeruginosa; P. aeruginosa KUB No. 5819, AR Bank # 514): 0.004 µg/mL (≈ 0.00919 µM) | MIC (P. aeruginosa; P. aeruginosa KUB No. 5820, AR Bank # 515): 0.032 µg/mL (≈ 0.0735 µM) | MIC (P. aeruginosa; P. aeruginosa KUB No. 5821, AR Bank # 516): > 0.064 µg/mL | MIC (P. aeruginosa; P. aeruginosa KUB No. 5823, AR Bank # 518): > 0.064 µg/mL | MIC (P. aeruginosa; P. aeruginosa KUB No. 5831, AR Bank # 526): 0.004 µg/mL (≈ 0.00919 µM) | MIC (P. aeruginosa; P. aeruginosa KUB No. 5832, AR Bank # 527): 0.032 µg/mL (≈ 0.0735 µM) | MIC (P. aeruginosa; P. aeruginosa KUB No. 5834, AR Bank # 529): 0.008 µg/mL (≈ 0.0184 µM)
